Measurements: US20070249590A1, “Substituted indolo[2,3-a]pyrrolo[3,4-c]carbazole compounds useful in treating kinase disorders” (priority 2005, published 2007)

What follows are compounds tested against T1, JAK3 (JH1 and JH2 domain) (Homo sapiens, UniProt P52333) (assay: JAK3 Kinase Assay (ELISA of peptide substrate phosphorylation)). Settings: purified JAK3 enzyme, 10 μM ATP, biotinylated peptide substrate, 1 hour at room temperature.
T1 sequence (P52333 521-1111 limits assumed): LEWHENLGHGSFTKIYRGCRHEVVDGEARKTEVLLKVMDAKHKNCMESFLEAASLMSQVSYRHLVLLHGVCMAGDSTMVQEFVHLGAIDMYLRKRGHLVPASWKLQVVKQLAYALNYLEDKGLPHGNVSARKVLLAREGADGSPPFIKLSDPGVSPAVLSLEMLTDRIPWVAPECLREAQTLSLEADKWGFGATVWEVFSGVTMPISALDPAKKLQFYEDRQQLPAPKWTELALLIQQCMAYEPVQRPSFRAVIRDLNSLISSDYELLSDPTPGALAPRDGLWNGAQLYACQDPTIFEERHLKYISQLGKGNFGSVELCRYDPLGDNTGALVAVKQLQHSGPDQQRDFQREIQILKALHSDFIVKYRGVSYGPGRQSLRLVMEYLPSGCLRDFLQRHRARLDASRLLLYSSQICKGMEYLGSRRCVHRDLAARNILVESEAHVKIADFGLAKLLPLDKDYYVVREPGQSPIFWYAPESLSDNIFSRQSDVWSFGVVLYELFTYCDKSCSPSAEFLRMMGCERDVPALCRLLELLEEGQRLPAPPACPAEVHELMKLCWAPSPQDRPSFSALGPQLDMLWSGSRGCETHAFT
Assay type: biochemical
Method in brief: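 Sf21-baculovirus-expressed JAK3 (JH1+JH2), glutathione-bead purified, with biotinylated peptide substrate (in buffer containing 10 μM ATP) in HEPES pH 7.5/MgCl2/DTT, 1 h RT. Product was captured on Neutravidin, detected with HRP anti-phosphotyrosine (PY99)/TMB, OD 450/650 nm. Triplicate 16-point half-log series from 200 μM gave IC50; otherwise % inhibition at 1 μM.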

SMILES	IC50
O=C1NC(=O)c2c1c1c3ccccc3n3c1c1c2c2ccccc2n1CC(O)(C(=O)N1CCN(CC(=O)N2CCCC2)CC1)C(O)C3 (stereo not shown) [Cpd 133, 12,13-(2-{[4-(pyrrolidin-1-yl-carbonylmethyl)piperazin-1-yl]carbonyl}-2,3-dihydroxy-butan-1,4-yl)-12,13-dihydro-5,7-dioxo-6H-indolo[2,3-a]pyrrolo[3,4-c]carbazole]	54 nM
O=C1NC(=O)c2c1c1c3ccccc3n3c1c1c2c2ccccc2n1CC(O)(C(=O)N1CCN(CCN2CCOCC2)CC1)C(O)C3 (stereo not shown) [Cpd 134, 12,13-(2-{[4-(2-morpholin-4-yl-ethyl)piperazin-1-yl]carbonyl}-2,3-dihydroxy-butan-1,4-yl)-12,13-dihydro-5,7-dioxo-6H-indolo[2,3-a]pyrrolo[3,4-c]carbazole]	53 nM
CC(C)NC(=O)OCC1(O)Cn2c3ccccc3c3c4c(c5c6ccccc6n(c5c32)C1)C(=O)NC4 (stereo not shown) [Cpd 135, 12,13-[2-hydroxy-2-(isopropyl-carbamoyloxymethyl)-propan-1,3-yl]-6,7,12,13-tetrahydro-5-oxo-5H-indolo[2,3-a]pyrrolo[3,4-c]carbazole]	> 200 nM
COCCNC(=O)OCC1(O)Cn2c3ccccc3c3c4c(c5c6ccccc6n(c5c32)C1)C(=O)NC4 (stereo not shown) [Cpd 136, 12,13-{2-hydroxy-2-[(2-methoxy-ethyl)carbamoyloxymethyl]-propan-1,3-yl}-6,7,12,13-tetrahydro-5-oxo-5H-indolo[2,3-a]pyrrolo[3,4-c]carbazole]	123 nM
O=C1NCc2c1c1c3ccccc3n3c1c1c2c2ccccc2n1CC(O)(COC(=O)N1CCN(c2ccc(O)cc2)CC1)C3 (stereo not shown) [Cpd 137, 12,13-(2-hydroxy-2-{[4-(4-hydroxy-phenyl)piperazin-1-yl]carbonyloxymethyl}-propan-1,3-yl)-6,7,12,13-tetrahydro-5-oxo-5H-indolo[2,3-a]pyrrolo[3,4-c]carbazole]	175 nM
O=C1NCc2c1c1c3ccccc3n3c1c1c2c2ccccc2n1CC(O)(COC(=O)N1CCOCC1)C3 (stereo not shown) [Cpd 138, 12,13-[2-hydroxy-2-(morpholin-4-yl-carbonyloxymethyl)-propan-1,3-yl]-6,7,12,13-tetrahydro-5-oxo-5H-indolo[2,3-a]pyrrolo[3,4-c]carbazole]	161 nM
O=C(NCCc1ccccn1)OCC1(O)Cn2c3ccccc3c3c4c(c5c6ccccc6n(c5c32)C1)C(=O)NC4 (stereo not shown) [Cpd 139]	160 nM
O=C(NCCCN1CCCC1=O)OCC1(O)Cn2c3ccccc3c3c4c(c5c6ccccc6n(c5c32)C1)C(=O)NC4 (stereo not shown) [Cpd 140, 12,13-(2-hydroxy-2-{[3-(2-oxo-pyrrolidin-1-yl)-prop-1-yl]carbamoyloxymethyl}-propan-1,3-yl)-6,7,12,13-tetrahydro-5-oxo-5H-indolo[2,3-a]pyrrolo[3,4-c]carbazole]	72 nM
Cc1ccc(CNC(=O)OCC2(O)Cn3c4ccccc4c4c5c(c6c7ccccc7n(c6c43)C2)C(=O)NC5)o1 (stereo not shown) [Cpd 141, 12,13-(2-hydroxy-2-{[(5-methyl-furan-2-yl)methyl]carbamoyloxymethyl}-propan-1,3-yl)-6,7,12,13h-tetrahydro-5-oxo-5H-indolo[2,3-a]pyrrolo[3,4-c]carbazole]	117 nM
O=C1NCc2c1c1c3ccccc3n3c1c1c2c2ccccc2n1CC(O)(COC(=O)N1CCN(C2CCCCC2)CC1)C3 (stereo not shown) [Cpd 142, 12,13-{2-hydroxy-2-[(4-cyclohexyl-piperazin-1-yl)carbonyloxymethyl]-propan-1,3-yl}-6,7,12,13-tetrahydro-5-oxo-5H-indolo[2,3-a]pyrrolo[3,4-c]carbazole]	> 200 nM
O=C1NCc2c1c1c3ccccc3n3c1c1c2c2ccccc2n1CC(O)(COC(=O)N1CCC(CO)CC1)C3 (stereo not shown) [Cpd 143, 12,13-{2-hydroxy-2-[(4-hydroxymethyl-piperidin-1-yl)carbonyloxymethyl]-propan-1,3-yl}-6,7,12,13-tetrahydro-5-oxo-5H-indolo[2,3-a]pyrrolo[3,4-c]carbazole]	~200 nM
O=C1NCc2c1c1c3ccccc3n3c1c1c2c2ccccc2n1CC(O)(COC(=O)N1CCN(c2ccncc2)CC1)C3 (stereo not shown) [Cpd 144, 12,13-{2-hydroxy-2-[(4-pyridin-4-yl-piperazin-1-yl)carbonyloxymethyl]-propan-1,3-yl}-6,7,12,13-tetrahydro-5-oxo-5H-indolo[2,3-a]pyrrolo[3,4-c]carbazole]	886 nM
O=C(NC1CCN(Cc2ccccc2)CC1)OCC1(O)Cn2c3ccccc3c3c4c(c5c6ccccc6n(c5c32)C1)C(=O)NC4 (stereo not shown) [Cpd 145, 12,13-{2-hydroxy-2-[(1-benzyl-piperidin-4-yl)carbamoyloxymethyl]-propan-1,3-yl}-6,7,12,13-tetrahydro-5-oxo-5H-indolo[2,3-a]pyrrolo[3,4-c]carbazole]	31 nM
O=C1NCc2c1c1c3ccccc3n3c1c1c2c2ccccc2n1CC(O)(COC(=O)N1CCCNCC1)C3 (stereo not shown) [Cpd 146, 12,13-{2-hydroxy-2-[(hexahydro-1H-1,4-diazepin-1-yl)carbonyloxymethyl]-propan-1,3-yl}-6,7,12,13-tetrahydro-5-oxo-5H-indolo[2,3-a]pyrrolo[3,4-c]carbazole]	26 nM
O=C1NCc2c1c1c3ccccc3n3c1c1c2c2ccccc2n1CC(O)(COC(=O)N1CCc2ccccc2C1)C3 (stereo not shown) [Cpd 147, 12,13-{2-hydroxy-2-[(1,2,3,4-tetrahydro-isoquinolin-2-yl)carbonyloxymethyl]-propan-1,3-yl}-6,7,12,13-tetrahydro-5-oxo-5H-indolo[2,3-a]pyrrolo[3,4-c]carbazole]	28 nM
CN(C)CCN(C)C(=O)OCC1(O)Cn2c3ccccc3c3c4c(c5c6ccccc6n(c5c32)C1)C(=O)NC4 (stereo not shown) [Cpd 148, 12,13-(2-hydroxy-2-{[N-methyl-N-(2-dimethylamino-ethyl)]carbamoyloxymethyl}-propan-1,3-yl)-6,7,12,13-tetrahydro-5-oxo-5H-indolo[2,3-a]pyrrolo[3,4-c]carbazole]	25 nM
O=C1NCc2c1c1c3ccccc3n3c1c1c2c2ccccc2n1CC(O)(COC(=O)N1CCC(O)CC1)C3 (stereo not shown) [Cpd 149, 12,13-{2-hydroxy-2-[(4-hydroxy-piperidin-1-yl)carbonyloxymethyl]-propan-1,3-yl}-6,7,12,13-tetrahydro-5-oxo-5H-indolo[2,3-a]pyrrolo[3,4-c]carbazole]	39 nM
O=C1NCc2c1c1c3ccccc3n3c1c1c2c2ccccc2n1CC(O)(COC(=O)N1CCC(N2CCCC2)CC1)C3 (stereo not shown) [Cpd 150, 12,13-{2-hydroxy-2-[(4-pyrrolidin-1-yl-piperidin-1-yl)carbonyloxymethyl]-propan-1,3-yl}-6,7,12,13-tetrahydro-5-oxo-5H-indolo[2,3-a]pyrrolo[3,4-c]carbazole]	45 nM
CN1CCN(CCCNC(=O)OCC2(O)Cn3c4ccccc4c4c5c(c6c7ccccc7n(c6c43)C2)C(=O)NC5)CC1 (stereo not shown) [Cpd 151, 12,13-(2-hydroxy-2-{[3-(4-methyl-piperazin-1-yl)prop-1-yl]carbamoyloxymethyl}-propan-1,3-yl)-6,7,12,13-tetrahydro-5-oxo-5H-indolo[2,3-a]pyrrolo[3,4-c]carbazole]	23 nM
O=C(NCCCn1ccnc1)OCC1(O)Cn2c3ccccc3c3c4c(c5c6ccccc6n(c5c32)C1)C(=O)NC4 (stereo not shown) [Cpd 152, 12,13-{2-hydroxy-2-[(3-1H-imidazol-1-yl-prop-1-yl)carbamoyloxymethyl]-propan-1,3-yl}-6,7,12,13-tetrahydro-5-oxo-5H-indolo[2,3-a]pyrrolo[3,4-c]carbazole]	84 nM
COc1ccc(CCNC(=O)OCC2(O)Cn3c4ccccc4c4c5c(c6c7ccccc7n(c6c43)C2)C(=O)NC5)cc1OC (stereo not shown) [Cpd 153, 12,13-(2-hydroxy-2-{[2-(3,4-dimethoxy-phenyl)ethyl]carbamoyloxymethyl}-propan-1,3-yl)-6,7,12,13-tetrahydro-5-oxo-5H-indolo[2,3-a]pyrrolo[3,4-c]carbazole]	17 nM
COCCNC(=O)OCC1Cn2c3ccccc3c3c4c(c5c6ccccc6n(c5c32)C1)C(=O)NC4 (stereo not shown) [Cpd 154, 12,13-{2-[(2-methoxy-ethyl)carbamoyloxymethyl]propan-1,3-yl]-6,7,12,13-tetrahydro-5-oxo-5H-indolo[2,3-a]pyrrolo[3,4-c]carbazole]	84 nM
CC(C)NC(=O)OCC1Cn2c3ccccc3c3c4c(c5c6ccccc6n(c5c32)C1)C(=O)NC4 (stereo not shown) [Cpd 155]	144 nM
Cc1ccc(CNC(=O)OCC2Cn3c4ccccc4c4c5c(c6c7ccccc7n(c6c43)C2)C(=O)NC5)o1 (stereo not shown) [Cpd 156, 12,13-(2-{[(5-methyl-furan-2-yl)methyl]carbamoyloxymethyl}-propan-1,3-yl)-6,7,12,13-tetrahydro-5-oxo-5H-indolo[2,3-a]pyrrolo[3,4-c]carbazole]	~200 nM
O=C(NCCCN1CCCC1=O)OCC1Cn2c3ccccc3c3c4c(c5c6ccccc6n(c5c32)C1)C(=O)NC4 (stereo not shown) [Cpd 157, 12,13-(2-{[3-(2-oxo-pyrrolidin-1-yl)prop-1-yl]carbamoyloxymethyl}-propan-1,3-yl)-6,7,12,13-tetrahydro-5-oxo-5H-indolo[2,3-a]pyrrolo[3,4-c]carbazole]	> 200 nM
